Laboratory results reported in EPA's ToxValDB 9.5 (doi:10.2903/j.efsa.2008.169r).
Values after ≈ are worked out from the molar mass of the structure shown.

Assays:
Aphidius rhopalosiphi = experiment: LR50; higher = less toxic; conditions: not reported; mortality
Apis mellifera = conditions: acute; duration: 48 hours; dermal; mortality
Daphnia magna = conditions: chronic/long-term, reproduction
Coturnix coturnix = conditions: mortality; for LD50: acute, oral
Tagia sp. = conditions: acute; duration: 14 days; mortality
Canidae = conditions: subchronic; duration: 90 days; oral; Dog Other; organ weight

## COCCN(C(=O)CCl)c1c(C)cccc1C [Dimethachlor]
Aphidius rhopalosiphi
  LR50: 91 g/ha
Apis mellifera
  LD50: > 200 µg/piece
Daphnia magna; duration: 21 days
  NOEC: 0.476 mg/L
Daphnia magna; duration: 22 days
  NOEC: 2.3 mg/L
Coturnix coturnix; diet
  LD50: > 1470 mg/kg-day
Coturnix coturnix
  LD50: 524 mg/kg-day
Coturnix coturnix; reproduction developmental, duration: 140 days
  NOEL: 102 mg/kg-day
Rattus norvegicus; acute, oral, mortality
  LD50: 1600 mg/kg-day
Rattus norvegicus; chronic, duration: 2 years, body weight
  NOAEL: 11.1 mg/kg-day
Rattus norvegicus; chronic, mortality
  NOEL: 20 mg/kg-day
Rattus norvegicus; developmental, development
  NOAEL: 50 mg/kg-day
Oncorhynchus mykiss; acute, duration: 96 hours, mortality
  LC50: 3.9 µg/mL (≈ 15.2 µM)
Oncorhynchus mykiss; chronic/long-term, duration: 21 days, growth
  NOEC: 0.85 mg/L
Tagia sp.
  LC50: > 70 mg/kg
Canidae
  NOAEL: 10 mg/kg-day
